Assay results taken from patent US10500158B2, “Cationic lipid” (Kyowa Hakko Kirin Co., Ltd., priority 2014, dated 2019).

Tests used:
factor VII gene = experiment: Test Example 1: in vivo drug efficacy evaluation, factor VII protein concentration in plasma after i.v. administration of f7 siRNA-1 preparations; set-up: species or system Mice (Balb/c); details: mice, intravenous, 0.03 and/or 0.3 mg/kg siRNA (f7 siRNA-1), 48 hours after administration; FIGS. 1 and 2
Description: The preparations (compositions containing compounds 1, 2, and 4 to 7, respectively, and f7 siRNA-1) obtained in Examples 21 and 22 were each subjected to an in vivo drug efficacy evaluation test by a method given below. Each preparation was used after being diluted with physiological saline according to the test.
Mice (Balb/c, obtained from CLEA Japan, Inc.) were acclimatized and raised. Then, each preparation was intravenously administered at 0.03 and/or 0.3 mg/kg in terms of the siRNA concentration to the mice. 48 hours after the administration, blood was collected, and the collected blood was centrifuged at 8000 rpm at 4° C. for 8 minutes using a high-speed refrigerated microcentrifuge (TOMY MX305; manufactured by Tomy Seiko Co., Ltd.). Absorbance in standard solutions and the plasma samples was measured in ARVO (405 nm) using BIOPHEN VII kit (manufactured by ANIARA, cat#: A221304) according to the method described in the instruction manual of the product. A calibration curve was prepared from the obtained absorbance, and the factor VII protein concentration in plasma was calculated. n=3 for each group.

[1] = Average particle size of the preparations, measured with a particle size measurement apparatus; type: physicochemical; details: preparations of Examples 21 and 22 (composition containing the compound and f7 siRNA-1)
Description: Each sample was weighed to be compound 1/PEG-DMPE Na (manufactured by NOF Corp.)=57.3/5.52 mmol/L, and suspended in an aqueous solution containing hydrochloric acid and ethanol. A homogenous suspension was obtained by repeating stirring with a vortex stirring mixer and heating. This suspension was passed through a 0.05-μm polycarbonate membrane filter at room temperature to obtain a dispersion of compound 1/PEG-DMPE Na particles (liposomes). The average particle size of the obtained liposomes was measured with a particle size measurement apparatus to confirm that the average particle size fell within the range of 30 nm to 100 nm. The obtained liposome dispersion and the f7 siRNA-1 solution were mixed at a ratio of liposome dispersion:f7 siRNA-1 solution=3:1. A 3-fold amount of distilled water was further added thereto and mixed to prepare a compound 1/PEG-DMPE Na/f7 siRNA-1 complex dispersion.
The average particle sizes of the preparations (compositions) obtained in Examples 21 and 22 were measured using a particle size measurement apparatus.
The average particle sizes of the preparations (compositions) obtained in Example 23 and Comparative Example 1 were measured using a particle size measurement apparatus.

## CCCCC/C=C\C/C=C\CCCCCCCCC1(CCCCCCCC/C=C\C/C=C\CCCCC)CN(C)C1 [Compound 1, 1-Methyl-3,3-bis[(9Z,12Z)-octadeca-9,12-dien-1-yl]azetidine]
Factor VII gene
  expression of the factor VII gene (factor VII protein concentration in plasma): strongly suppressed
[1]
  Particle size of obtained preparation (nm): 113 nm

## CCCCC/C=C\C/C=C\CCCCCCCCC1(CCCCCCCC/C=C\C/C=C\CCCCC)CN(CCC)C1 [Compound 2, 3,3-Bis[(9Z,12Z)-octadeca-9,12-dien-1-yl]-1-propylazetidine]
Factor VII gene
  expression of the factor VII gene (factor VII protein concentration in plasma): strongly suppressed
[1]
  Particle size of obtained preparation (nm): 116 nm

## CCCCC/C=C\C/C=C\CCCCCCCCC1(CCCCCCCC/C=C\C/C=C\CCCCC)CN(C(=O)OCCCN(C)C)C1 [Compound 4, 3-(Dimethylamino)propyl 3,3-bis[(9Z,12Z)-octadeca-9,12-dien-1-yl]azetidine-1-carboxylate]
[1]
  Particle size of obtained preparation (nm): 127 nm

## CCCCCCCC/C=C\CCCCCCCCC1(CCCCCCCC/C=C\CCCCCCCC)CN(C)C1 [Compound 5, 1-Methyl-3,3-bis[(Z)-octadec-9-en-1-yl]azetidine]
[1]
  Particle size of obtained preparation (nm): 115 nm

## CCCCCC/C=C\CCCCCCCCC1(CCCCCCCC/C=C\CCCCCC)CN(C)C1 [Compound 6, 3,3-Bis[(Z)-hexadec-9-en-1-yl]-1-methylazetidine]
[1]
  Particle size of obtained preparation (nm): 123 nm

## CCCCC/C=C\C/C=C\CCCCCCCCCCC1(CCCCCCCCCC/C=C\C/C=C\CCCCC)CN(C)C1 [Compound 7, 3,3-Bis[(11Z,14Z)-icosa-11,14-dien-1-yl]-1-methylazetidine]
[1]
  Particle size of obtained preparation (nm): 128 nm
